Here are results for nine molecules from US9512086B2, “Compound for promoting apoptosis of cancer cells and a pharmaceutical composition containing the same and uses thereof” (National Chiao Tung University, priority 2014, dated 2016).

The viability is the share of living cells, or the viability signal relative to a control.

One series relates to A549 cell line. Nature of the series: MTT cell viability, A549 cell line. Format: cell-based, human. Particulars: Homo sapiens, A549 cell line, 24 hours, MTT. Here is the method:
(§1) The above cell lines were plated in 96-well plates at a density of 1×10^4 cells/well for 16 to 20 hours. […] After drug treatment, the cell lines were washed with phosphate-buffered saline (hereinafter referred to PBS), and were replaced with fresh complete RPMI-1640 medium for 2 days. Thereafter, the medium was replaced and the cells were incubated with 0.5 mg/ml of 3-(4,5-dimethylthiazol-2-yl)-2,5-diphenyltetrazolium bromide reagent (hereinafter referred to MTT, Sigma Chemical Co., St. Louis, Mo.) in complete RPMI-1640 medium for 4 hours. The viable cells converted MTT to formazan that generates a blue-purple color when dissolved in dimethyl sulfoxide (hereinafter referred to DMSO). The intensity of formazan was measured at 565 nm using a plate reader (VERSAmax, Molecular Dynamics, Sunnyvale, Calif.). The relative percentage of cell viability was calculated by dividing the absorbance of treated cells by that of the control in each experiment.
(§2) After drug treatment, the cells were washed with PBS and replaced with fresh complete RPMI-1640 medium for 2 days. Thereafter, the medium was replaced and the cells were incubated with 0.5 mg/mL of MTT reagent (Sigma Chemical Co., St. Louis, Mo.) in complete RPMI-1640 medium for 4 hours. The intensity of formazan was measured at 565 nm using a plate reader (VERSAmax, Molecular Dynamics, Sunnyvale, Calif.). The relative percentage of cell viability was calculated by dividing the absorbance of treated cells by that of the control in each experiment.

Series [1] deals with RKO human rectal cancer cell line. Briefly: MTT cell viability, RKO cells. Format: cell-based. The following applies: 24 hours, in comparison with Iressa. Here is the method:
as §1

The subject of series [2] is BFTC905 human bladder cancer cell line. Nature of the series: MTT cell viability, BFTC905 cells. In kind it is cell-based. The following applies: 24 hours, in comparison with Iressa. Here is the method:
as §1

The next series has as its target T1, MARK2 (PAR-1Ba) (Homo sapiens, UniProt Q7KZI7).
T1 construct: purchased Merck Millipore (KinaseProfiler service)
Nature of the series: KinaseProfiler assay, MARK2. In kind it is biochemical. Particulars: read-out: KAR value (kinase activity remaining). The text has this: (§3) The kinase activity remaining (KAR) value is […] related to kinase activity. […]

The test system of another series is caspase 3. Nature of the series: Western blot of active caspase 3 in A549 cells. Particulars: 10-40 μM, 24 hours.
Series [3] addresses T2, MAPK14 (stress-activated protein kinase-2a) (Homo sapiens, UniProt Q16539).
T2 construct: purchased Merck Millipore (KinaseProfiler service)
Briefly: KinaseProfiler assay, MAPK14. In kind it is biochemical. The following applies: read-out: KAR value (kinase activity remaining).
Source text: as §3

Series [4] addresses T3, STK10 (lymphocyte-oriented kinase) (Homo sapiens, UniProt O94804).
T3 construct: purchased Merck Millipore (KinaseProfiler service)
Briefly: KinaseProfiler assay, STK10. Format: biochemical. The following applies: read-out: KAR value (kinase activity remaining).
Source text: as §3

Series [5] deals with A549 cells. Briefly: Annexin V-PI apoptosis analysis by flow cytometry. Format: cell-based, human. Particulars: 10-40 μM for 24 hours. (A flow cytometer gives signals particle by particle.)
Experimental: The Annexin V-PI staining kit (BioVision, Mountain View, Calif.) was used to exam the cells by incubating with fluorescent isothiocyanate (FITC)-conjugated-Annexin V and PI according to the manufacturer's instruction. […] The cells were cultured in 60-mm Petri dish at a density of 7×10^5 cells for 16 to 20 hours. […] The cells were trypsinized and collected by centrifugation at 1500 rpm for 5 minutes. Thereafter, the cells were incubated with 500 μl Annexin V-PI labeling solution (containing 5 μl Annexin V-FITC and 5 μl PI in PBS) at room temperature in the dark for 5 minutes. To avoid cell aggregation, the cell solutions were filtered through a nylon mesh membrane (Becton-Dickinson, San Jose, Calif.). Finally, the samples were analyzed immediately using flow cytometer (FACS Calibur, BD Biosciences, Heidelberg, Germany). The percentage of Annexin V-PI staining cells was quantified from a minimum of 10,000 cells by CellQuest software (BD Biosciences).
Series [6] concerns the target T4, RET (product of ret proto-oncogene) (Homo sapiens, UniProt P07949).
T4 construct: purchased Merck Millipore (KinaseProfiler service)
Briefly: KinaseProfiler assay, RET. In kind it is biochemical. Particulars: read-out: KAR value (kinase activity remaining).
Source text: as §3

Series [7] relates to survivin. Briefly: Western blot of survivin protein expression in A549 cells. Particulars: 0 to 40 μM, 24 hours. (In general: In western blotting, separated proteins are transferred to a membrane and probed.)
Experimental: (§4) The protease inhibitors including 1 μg/ml aprotinin, 0.5 μg/ml leupeptin, and 100 μg/ml 4-(2-aminoethyl)benzenesulfonyl fluoride were added to the cell suspensions. The lysates were vibrated for 30 minutes at 4° C. and centrifuged at 10,000 rpm for 10 minutes. The protein concentrations were determined by the BCA protein assay kit (Pierce, Rockford, Ill.). […] The membranes were blocked overnight at 4° C. using blocking buffer (5% non-fat dried milk in solution containing 50 mM Tris/HCl (pH 8.0), 2 mM CaCl2, 80 mM NaCl, 0.05% Tween 20 and 0.02% sodium azide). The membranes were sequentially hybridized with primary antibody and followed with a horseradish peroxidase-conjugated secondary antibody. The protein bands were visualized on the X-ray film using the enhanced chemiluminescence detection system (PerkinElmer Life and Analytical Sciences, Boston, Mass.). […] To verify equal protein loading and transfer, actin was used as the protein loading control. The gel digitizing software, Un-Scan-It gel (Ver. 5.1, Silk Scientific, Inc., Orem, Utah), was used to analyze the intensity of protein bands on X-ray film.
(§5) A549 cells were plated at a density of 1×10^6 cells per 60-mm Petri dish in complete medium for 16 to 20 hours. […] To verify equal protein loading and transfer, actin was used as the protein loading control.
In series [8] the target is T5, FGFR1 (fibroblast growth factor receptor-1) (Homo sapiens, UniProt P11362).
T5 construct: purchased Merck Millipore (KinaseProfiler service)
Nature of the series: KinaseProfiler assay, FGFR1. Format: biochemical. Particulars: read-out: KAR value (kinase activity remaining).
Source text: as §3

The target of series [9] is T6, SYK (splenic tyrosine kinase) (Homo sapiens, UniProt P43405).
T6 construct: purchased Merck Millipore (KinaseProfiler service)
Briefly: KinaseProfiler assay, SYK. In kind it is biochemical. Particulars: read-out: KAR value (kinase activity remaining).
Source text: as §3

A short description of series [10]: MTT cell viability, HFL1 normal lung fibroblasts. Format: cell-based. Particulars: human, HFL1 normal lung fibroblast cells, 0 to 40 μM. The procedure: as §2
The test system of series [11] is A549 cells. Briefly: Cell cycle analysis, PI staining and flow cytometry. In kind it is cell-based, human. The following applies: 40 μM, 24 hours, 60.5% before treatment.
Experimental: After the treatment, the cells were collected and fixed with ice-cold 70% ethanol overnight at −20° C. After centrifugation at 1500 rpm for 5 minutes, the pellets were treated with 4 μg/ml PI solution containing 1% Triton X-100 and 50 μg/ml RNase at 37 °C for 30 minutes in the dark. To avoid cell aggregation, the cell solutions were filtrated through nylon membrane (Becton-Dickinson, San Jose, Calif.). Subsequently, the samples were analyzed by flow cytometry. For each measurement, 10,000 cells were analyzed for DNA content. The percentage of cell cycle phases was quantified by ModFit LT software (Ver. 2.0, Becton-Dickinson).
Series [12] deals with T7, CSNK2A1 (casein kinase-2) (Homo sapiens, UniProt P68400).
T7 construct: purchased Merck Millipore (KinaseProfiler service)
Briefly: KinaseProfiler assay, CSNK2A1. Particulars: read-out: KAR value (kinase activity remaining). Format: biochemical.
Source text: as §3

The next series relates to PARP. Nature of the series: Western blot of cleaved PARP in A549 cells. The following applies: 10-40 μM, 24 hours.
Series [13] concerns the target T8, MKNK2 (MAPK-interacting kinase-2) (Homo sapiens, UniProt Q9HBH9).
T8 construct: purchased Merck Millipore (KinaseProfiler service)
Briefly: KinaseProfiler assay, MKNK2. Format: biochemical. Particulars: read-out: KAR value (kinase activity remaining).
Source text: as §3

Series [14] concerns survivin. Briefly: RT-PCR of survivin gene expression in A549 cells. Format: cell-based, human. The following applies: 0 to 40 μM, 24 hours. Here is the method: After the treatment, total cellular RNA was purified by ZR RNA MiniPrep™ (Zymo Research, Irvine, Calif.) according to the manufacturer's protocol. RNA concentrations were determined by spectrophotometry. cDNAs were synthesized by SuperScript™ III reverse transcriptase with oligo (dT)12-18 primer (Invitrogen). Each reverse transcript was amplified with GAPDH as an internal control. Reverse transcription polymerase chain reaction (RT-PCR) was performed by a DNA thermal cycler (Mastercycler gradient, Hamburg, Germany). […] The conditions of RT-PCR are stated as followed: the initial denaturation was performed at 94° C. for 2 minutes, followed by 30 cycles at 94° C. for 30 seconds, 56° C. for 30 seconds, and 72° C. for 40 seconds; and 72° C. for 5 minutes. The PCR products were visualized on 1.2% agarose gels with ethidium bromide staining under UV transillumination, and photograph was taken by a camera DH27-S3 (Medclub, Taoyuan, Taiwan).

In series [15] the target is T9, LIMK1 (LIM motif-containing protein kinase-1) (Homo sapiens, UniProt P53667).
T9 construct: purchased Merck Millipore (KinaseProfiler service)
Briefly: KinaseProfiler assay, LIMK1. In kind it is biochemical. Particulars: read-out: KAR value (kinase activity remaining).
Source text: as §3

In series [16] the test system is A549 cells. Nature of the series: Cell growth, cell number by hemocytometer. Format: cell-based, human. Particulars: 30 μM for 24 hours, then cultured 2-6 days.
Experimental: The cells were washed with PBS after the treatment. […] The cell number was calculated with hemocytometer.

T8 sequence (Q9HBH9 whole entry): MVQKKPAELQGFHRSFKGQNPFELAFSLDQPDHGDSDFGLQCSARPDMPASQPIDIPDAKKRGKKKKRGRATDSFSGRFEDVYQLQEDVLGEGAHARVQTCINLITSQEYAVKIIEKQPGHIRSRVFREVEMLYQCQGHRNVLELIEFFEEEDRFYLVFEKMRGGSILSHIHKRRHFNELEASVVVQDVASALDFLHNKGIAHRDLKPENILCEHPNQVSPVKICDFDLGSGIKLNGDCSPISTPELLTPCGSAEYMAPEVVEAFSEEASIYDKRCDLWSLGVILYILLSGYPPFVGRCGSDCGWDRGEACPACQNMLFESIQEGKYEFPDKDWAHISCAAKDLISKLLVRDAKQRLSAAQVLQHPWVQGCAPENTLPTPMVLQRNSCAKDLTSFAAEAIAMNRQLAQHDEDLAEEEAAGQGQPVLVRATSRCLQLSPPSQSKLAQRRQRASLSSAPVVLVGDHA
T9 sequence (P53667 whole entry): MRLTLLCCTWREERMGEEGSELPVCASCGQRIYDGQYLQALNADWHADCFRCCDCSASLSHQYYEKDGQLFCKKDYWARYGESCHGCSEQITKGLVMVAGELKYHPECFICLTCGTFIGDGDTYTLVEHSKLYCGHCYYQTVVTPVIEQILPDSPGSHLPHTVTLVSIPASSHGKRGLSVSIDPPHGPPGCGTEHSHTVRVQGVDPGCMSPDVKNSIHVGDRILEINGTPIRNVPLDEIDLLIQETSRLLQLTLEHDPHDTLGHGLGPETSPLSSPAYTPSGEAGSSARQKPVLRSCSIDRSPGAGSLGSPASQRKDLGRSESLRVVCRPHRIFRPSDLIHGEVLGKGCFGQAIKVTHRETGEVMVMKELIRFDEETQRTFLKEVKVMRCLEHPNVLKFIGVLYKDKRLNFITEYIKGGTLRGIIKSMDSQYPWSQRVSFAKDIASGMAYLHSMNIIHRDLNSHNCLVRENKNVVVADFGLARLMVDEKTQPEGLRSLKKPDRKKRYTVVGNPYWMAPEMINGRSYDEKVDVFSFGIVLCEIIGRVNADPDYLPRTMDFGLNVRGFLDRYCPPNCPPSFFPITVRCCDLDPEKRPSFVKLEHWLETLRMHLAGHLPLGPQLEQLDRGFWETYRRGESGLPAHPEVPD
T1 sequence (Q7KZI7 1-725 isoform Q7KZI7-4): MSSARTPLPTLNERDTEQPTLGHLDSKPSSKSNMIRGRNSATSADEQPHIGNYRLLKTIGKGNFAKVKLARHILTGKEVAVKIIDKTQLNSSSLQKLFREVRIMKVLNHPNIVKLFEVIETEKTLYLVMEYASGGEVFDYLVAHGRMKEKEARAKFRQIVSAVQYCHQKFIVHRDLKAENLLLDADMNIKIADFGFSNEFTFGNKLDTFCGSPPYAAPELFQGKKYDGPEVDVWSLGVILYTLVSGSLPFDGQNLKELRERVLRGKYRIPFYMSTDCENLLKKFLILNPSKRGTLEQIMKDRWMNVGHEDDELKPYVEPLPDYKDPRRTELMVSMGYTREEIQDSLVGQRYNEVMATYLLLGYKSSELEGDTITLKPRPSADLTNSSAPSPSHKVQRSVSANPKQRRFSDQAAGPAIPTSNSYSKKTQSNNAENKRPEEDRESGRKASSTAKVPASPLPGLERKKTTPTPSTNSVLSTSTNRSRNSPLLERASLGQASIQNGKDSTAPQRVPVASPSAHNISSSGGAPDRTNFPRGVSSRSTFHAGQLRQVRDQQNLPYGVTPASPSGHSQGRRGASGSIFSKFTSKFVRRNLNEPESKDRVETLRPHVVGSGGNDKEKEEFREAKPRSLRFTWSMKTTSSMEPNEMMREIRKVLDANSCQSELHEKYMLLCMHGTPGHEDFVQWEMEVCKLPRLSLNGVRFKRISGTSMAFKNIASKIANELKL
T4 sequence (P07949 29-1114): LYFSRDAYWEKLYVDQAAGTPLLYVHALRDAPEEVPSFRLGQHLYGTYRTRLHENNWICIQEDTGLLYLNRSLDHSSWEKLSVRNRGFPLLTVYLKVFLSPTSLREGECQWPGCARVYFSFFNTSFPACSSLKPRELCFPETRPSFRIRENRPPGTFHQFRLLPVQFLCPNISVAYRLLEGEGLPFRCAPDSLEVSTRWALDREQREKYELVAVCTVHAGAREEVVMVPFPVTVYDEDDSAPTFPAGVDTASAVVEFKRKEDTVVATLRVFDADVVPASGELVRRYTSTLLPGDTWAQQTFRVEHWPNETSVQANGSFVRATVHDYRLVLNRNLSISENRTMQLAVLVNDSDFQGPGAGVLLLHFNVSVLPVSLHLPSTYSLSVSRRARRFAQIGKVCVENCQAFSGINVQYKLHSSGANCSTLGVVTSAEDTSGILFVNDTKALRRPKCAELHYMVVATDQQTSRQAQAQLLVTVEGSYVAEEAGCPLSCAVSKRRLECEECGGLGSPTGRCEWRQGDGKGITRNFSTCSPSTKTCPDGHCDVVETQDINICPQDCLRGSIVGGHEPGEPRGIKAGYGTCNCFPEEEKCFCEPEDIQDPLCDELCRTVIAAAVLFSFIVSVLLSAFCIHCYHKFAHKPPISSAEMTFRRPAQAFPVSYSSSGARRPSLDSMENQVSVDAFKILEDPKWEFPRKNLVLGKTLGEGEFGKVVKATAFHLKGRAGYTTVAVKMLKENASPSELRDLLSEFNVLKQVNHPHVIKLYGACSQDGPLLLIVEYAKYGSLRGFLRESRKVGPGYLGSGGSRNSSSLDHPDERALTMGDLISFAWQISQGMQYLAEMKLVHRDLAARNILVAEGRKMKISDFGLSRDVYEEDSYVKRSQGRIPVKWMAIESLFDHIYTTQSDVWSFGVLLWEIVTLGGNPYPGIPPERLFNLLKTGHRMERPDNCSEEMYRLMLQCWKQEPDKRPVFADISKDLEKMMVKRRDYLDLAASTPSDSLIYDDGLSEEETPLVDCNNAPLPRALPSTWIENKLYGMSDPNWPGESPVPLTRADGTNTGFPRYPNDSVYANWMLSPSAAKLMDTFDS
T3 sequence (O94804 whole entry): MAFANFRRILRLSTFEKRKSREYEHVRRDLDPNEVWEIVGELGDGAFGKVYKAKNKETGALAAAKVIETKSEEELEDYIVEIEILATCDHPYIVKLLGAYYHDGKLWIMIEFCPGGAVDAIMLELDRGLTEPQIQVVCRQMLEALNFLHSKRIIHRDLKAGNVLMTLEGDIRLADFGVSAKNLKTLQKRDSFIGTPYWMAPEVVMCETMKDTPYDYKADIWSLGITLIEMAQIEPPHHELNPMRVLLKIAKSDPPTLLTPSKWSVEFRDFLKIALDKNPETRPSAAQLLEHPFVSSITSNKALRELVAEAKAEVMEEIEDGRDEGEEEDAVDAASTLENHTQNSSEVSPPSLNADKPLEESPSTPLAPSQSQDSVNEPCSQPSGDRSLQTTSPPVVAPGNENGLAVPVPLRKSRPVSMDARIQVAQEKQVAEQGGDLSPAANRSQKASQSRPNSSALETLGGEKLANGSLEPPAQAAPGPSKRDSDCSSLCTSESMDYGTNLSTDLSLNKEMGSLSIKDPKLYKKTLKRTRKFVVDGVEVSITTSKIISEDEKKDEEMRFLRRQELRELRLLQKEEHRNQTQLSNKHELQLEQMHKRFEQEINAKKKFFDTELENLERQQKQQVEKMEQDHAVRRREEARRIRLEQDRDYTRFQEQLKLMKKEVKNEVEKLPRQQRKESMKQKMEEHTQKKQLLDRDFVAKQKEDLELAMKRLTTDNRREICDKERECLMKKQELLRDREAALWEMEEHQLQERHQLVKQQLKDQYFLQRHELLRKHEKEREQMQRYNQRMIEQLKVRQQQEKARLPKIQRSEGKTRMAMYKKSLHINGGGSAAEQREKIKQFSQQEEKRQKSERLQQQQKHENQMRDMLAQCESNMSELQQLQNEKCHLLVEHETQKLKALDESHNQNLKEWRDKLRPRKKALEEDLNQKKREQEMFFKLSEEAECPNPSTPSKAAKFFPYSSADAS
T2 sequence (Q16539 whole entry): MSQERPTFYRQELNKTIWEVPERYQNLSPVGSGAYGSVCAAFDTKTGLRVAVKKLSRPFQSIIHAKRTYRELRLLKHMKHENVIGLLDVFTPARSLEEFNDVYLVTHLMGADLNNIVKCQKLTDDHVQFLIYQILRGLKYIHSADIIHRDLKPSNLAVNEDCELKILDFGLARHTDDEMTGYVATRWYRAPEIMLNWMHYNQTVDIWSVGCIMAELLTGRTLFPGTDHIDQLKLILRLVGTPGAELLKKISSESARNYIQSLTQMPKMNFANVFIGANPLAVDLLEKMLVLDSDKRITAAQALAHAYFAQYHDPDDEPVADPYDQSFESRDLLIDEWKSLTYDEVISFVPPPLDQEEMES
T5 sequence (P11362 22-822): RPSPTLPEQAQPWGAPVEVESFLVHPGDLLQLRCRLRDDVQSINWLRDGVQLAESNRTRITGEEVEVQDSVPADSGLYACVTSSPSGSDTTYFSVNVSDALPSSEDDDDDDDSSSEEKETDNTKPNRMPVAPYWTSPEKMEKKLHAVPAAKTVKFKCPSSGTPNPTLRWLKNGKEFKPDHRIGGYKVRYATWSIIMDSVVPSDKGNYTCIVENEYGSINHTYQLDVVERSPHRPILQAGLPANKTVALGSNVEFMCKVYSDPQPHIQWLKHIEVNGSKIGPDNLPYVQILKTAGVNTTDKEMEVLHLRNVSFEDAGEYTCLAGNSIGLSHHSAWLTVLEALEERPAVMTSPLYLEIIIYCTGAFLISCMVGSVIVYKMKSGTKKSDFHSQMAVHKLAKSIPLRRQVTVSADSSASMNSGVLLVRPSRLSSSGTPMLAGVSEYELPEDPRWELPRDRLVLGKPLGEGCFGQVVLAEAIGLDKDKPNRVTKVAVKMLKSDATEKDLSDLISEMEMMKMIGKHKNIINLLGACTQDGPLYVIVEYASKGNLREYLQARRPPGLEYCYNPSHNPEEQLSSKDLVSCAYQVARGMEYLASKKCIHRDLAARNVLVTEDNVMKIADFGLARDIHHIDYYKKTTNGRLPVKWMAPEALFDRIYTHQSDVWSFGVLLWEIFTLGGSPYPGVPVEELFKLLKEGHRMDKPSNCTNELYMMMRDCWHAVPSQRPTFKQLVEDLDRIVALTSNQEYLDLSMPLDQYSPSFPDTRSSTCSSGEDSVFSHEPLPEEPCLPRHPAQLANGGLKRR
Experimental for PARP: as §4, §5
Experimental for caspase 3: as §4, §5

Take `COC(=O)CCC(=O)N1CCN(CCCOc2cc3c(Nc4ccc(F)c(Cl)c4)ncnc3cc2OC)CC1` [Analogue-1, methyl 4-(4-(3-(4-(3-chloro-4-fluorophenylamino)-7-methoxyquinazolin-6-yloxy)propyl)piperazin-1-yl)-4-oxobutanoate]: in the series on A549 cell line, the viability at 10 µM came to 89.1%, the viability at 20 µM was found to be 85.6%, the viability at 40 µM was determined as 75.9% and the viability at 60 µM came out at 74.4%. The molecule also displayed a viability at 80 µM with A549 cell line of 75.9%. Also, in [1], the “toxicity effect on RKO cells” value is “more effective on cell death of RKO cells and BFTC905 cells than Iressa”. Besides, in [2], the “toxicity effect on BFTC905 cells” value is “more effective on cell death of RKO cells and BFTC905 cells than Iressa”.

Turning to `COc1cc2ncnc(Nc3ccc(F)c(Cl)c3)c2cc1OCCCN1CCN(C(=O)CCC(=O)O)CC1` [Analogue-2, 4-(4-(3-(4-(3-chloro-4-fluorophenylamino)-7-methoxyquinazolin-6-yloxy)propyl)piperazin-1-yl)-4-oxobutanoic acid], the “toxicity effect on RKO cells” value in series [1] is listed as “no toxicity effect on RKO cells”. Further, in series [2], the “toxicity effect on BFTC905 cells” value is listed as “minor toxicity effect on BFTC905 cells”.

In the series with A549 cell line, `CCCCCCCCCCCCCCCOC(=O)CCC(=O)N1CCN(CCCOc2cc3c(Nc4ccc(F)c(Cl)c4)ncnc3cc2OC)CC1` [Analogue-21, pentadecyl 4-(4-(3-(4-(3-chloro-4-fluorophenylamino)-7-methoxyquinazolin-6-yloxy)propyl)piperazin-1-yl)-4-oxobutanoate] returned a viability at 10 µM of 92%, a viability at 20 µM of 91.2%, a viability at 40 µM of 85.5% and a viability at 60 µM of 81.6%. For the same molecule, the viability at 80 µM in the series with A549 cell line amounted to 81.1%.

Regarding `CCCCCCCCCCCCCCCCOC(=O)CCC(=O)N1CCN(CCCOc2cc3c(Nc4ccc(F)c(Cl)c4)ncnc3cc2OC)CC1` [Analogue-22, hexadecyl 4-(4-(3-(4-(3-chloro-4-fluorophenylamino)-7-methoxyquinazolin-6-yloxy)propyl)piperazin-1-yl)-4-oxobutanoate], in the series with A549 cell line, the viability at 10 µM was found to be 97.7%, the viability at 20 µM was 91.7%, the viability at 40 µM is 82.6% and the viability at 60 µM worked out at 80%. In addition, the viability at 80 µM with A549 cell line is 74.3%.

With `CCCCCCCCCCCCCCCCCOC(=O)CCC(=O)N1CCN(CCCOc2cc3c(Nc4ccc(F)c(Cl)c4)ncnc3cc2OC)CC1` [Analogue-23, heptadecyl 4-(4-(3-(4-(3-chloro-4-fluorophenylamino)-7-methoxyquinazolin-6-yloxy)propyl)piperazin-1-yl)-4-oxobutanoate], in the series on A549 cell line, the viability at 10 µM came out at 95.7%, the viability at 20 µM stood at 97.2%, the viability at 40 µM was found to be 85.2% and the viability at 60 µM worked out at 84.1%. Further, the viability at 80 µM in the series on A549 cell line was determined as 83.2%.

With `CCCCCCCCCCCCCCCCCCOC(=O)CCC(=O)N1CCN(CCCOc2cc3c(Nc4ccc(F)c(Cl)c4)ncnc3cc2OC)CC1` [Analogue-24, octadecyl 4-(4-(3-(4-(3-chloro-4-fluorophenylamino)-7-methoxyquinazolin-6-yloxy)propyl)piperazin-1-yl)-4-oxobutanoate], in the series with A549 cell line, the viability at 10 µM was 94.8%, the viability at 20 µM came to 90.5%, the viability at 40 µM was found to be 91% and the viability at 60 µM is 87.2%. The same molecule returned a viability at 80 µM in the series with A549 cell line of 86.7%.

In the series on A549 cell line, `CCCCCCCCCCCCCCCCCCCOC(=O)CCC(=O)N1CCN(CCCOc2cc3c(Nc4ccc(F)c(Cl)c4)ncnc3cc2OC)CC1` [Analogue-25, nonadecyl 4-(4-(3-(4-(3-chloro-4-fluorophenylamino)-7-methoxyquinazolin-6-yloxy)propyl)piperazin-1-yl)-4-oxobutanoate] came in with a viability at 10 µM of 94.5%, a viability at 20 µM of 94.8%, a viability at 40 µM of 92.3% and a viability at 60 µM of 89.3%. Besides, the viability at 80 µM in the series with A549 cell line was determined as 88.4%.

On to `CCCCCCCCCCCCCCCCCCCCOC(=O)CCC(=O)N1CCN(CCCOc2cc3c(Nc4ccc(F)c(Cl)c4)ncnc3cc2OC)CC1` [Analogue-26, icosyl 4-(4-(3-(4-(3-chloro-4-fluorophenylamino)-7-methoxyquinazolin-6-yloxy)propyl)piperazin-1-yl)-4-oxobutanoate], for which, in the series with A549 cell line, the viability at 10 µM was found to be 94%, the viability at 20 µM came to 90.8%, the viability at 40 µM worked out at 87.1% and the viability at 60 µM is 86.9%. Also, the viability at 80 µM in the series on A549 cell line is 85.2%.

Take `COc1cc2ncnc(Nc3ccc(F)c(Cl)c3)c2cc1OCCCN1CCOCC1` [Iressa, Gefitinib, reference compound]: the remaining activity at 10 µM was 86% at MARK2 (PAR-1Ba); 20% in series [3]; 19% in series [4]; 30% in [6]; 27% in series [8]; 84% in series [9]. Also, the remaining activity at 10 µM in [12] was 92%; in series [13], 9%; in [15], 76%. Also, the “active form of caspase 3” value in the series with caspase 3 is “did not induce any significant change of caspase 3 and PARP”. Besides, the viability at 10 µM with A549 cell line was found to be 86.7%. The viability at 20 µM with A549 cell line is 82.1%. The molecule further returned a viability at 40 µM in the series with A549 cell line of 74.3%. Moreover, the viability at 60 µM with A549 cell line was found to be 64.6%. This molecule showed a viability at 80 µM in the series with A549 cell line of 60.8%. The “average of total apoptosis” value in the series on A549 cells [5] is “around 19.6%”. In addition, in the series on survivin [7], the survivin protein expression entry was “significantly inhibited surviving protein expression”. For the same molecule, the viability at 24 h in series [10] is more than 30%. Also, the “average percentage of G1 fractions” value with A549 cells [11] was 76.1%. Also, the “cleaved form of PARP” value in the series on PARP is “did not induce any significant change of caspase 3 and PARP”. In the series on survivin [14], the survivin gene expression result was “no significant change”. For the same molecule, the “cell growth of A549 cells” value in the series with A549 cells [16] is “inhibit cell growth of A549 cells”.
